{
  "source": "patent US20060079453A1",
  "about": "“Hla binding peptides and their uses” (priority 2002, published 2006)",
  "experiment_in_all_cases": "biochemical",
  "format_in_all_cases": "binding",
  "key": {"HLA-DR DRB1*0401 (DR4)": {"target": "HLA-DR DRB1*0401 (DR4) (Homo sapiens, UniProt P01903+P01911, A100K/A169T/F76Y/I96L/K127E/L162R/M171V/N62H/P40V/Q125Y/R42H/S133A/S149N/S66Y/V115G/V209L/W38E)"}, "HLA-DR DRB1*0701 (DR7)": {"target": "HLA-DR DRB1*0701 (DR7) (Homo sapiens, UniProt P01903+P01911, A100R/A102G/A103Q/D57E/D86V/E43K/F76Y/K127E/L162R/M171V/P40G/Q125H/Q99D/R33Q/R42Y/R54Q/S133A/S66F/T210M/V115G/Y107V/Y59L/Y89S)"}, "HLA-DR DRB1*1101 (DR11)": {"target": "HLA-DR DRB1*1101 (DR11) (Homo sapiens, UniProt P01903+P01911, A100R/A169T/A87E/I96F/K41T/L162R/M171V/P40S/Q125H/Q178H/Q39Y/Q99D/R42S/S66Y/T262R/V115G/W38E)", "sequence (P01903 26-254 limits assumed, other chains not shown)": "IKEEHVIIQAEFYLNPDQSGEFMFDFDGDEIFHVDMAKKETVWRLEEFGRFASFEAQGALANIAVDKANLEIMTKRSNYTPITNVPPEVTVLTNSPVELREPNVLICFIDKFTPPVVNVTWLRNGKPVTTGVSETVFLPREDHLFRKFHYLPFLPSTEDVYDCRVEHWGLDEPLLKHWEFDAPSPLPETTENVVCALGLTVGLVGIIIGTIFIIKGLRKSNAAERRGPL"}, "HLA-DR DRB5*0101 (DR51)": {"target": "HLA-DR DRB5*0101 (DR51) (Homo sapiens, UniProt P01903+Q30154)"}, "HLA-DR DRB1*1302 (DR13)": {"target": "HLA-DR DRB1*1302 (DR13) (Homo sapiens, UniProt P01903+P01911, A100E/A169T/K41T/L162R/M171V/P40S/Q125H/Q178H/Q39Y/Q99D/R42S/S66N/T262R/V115G/W38E/Y61H)", "sequence (P01903 26-254 limits assumed, other chains not shown)": "as above"}, "HLA-DR DRB1*1501 (DR15)": {"target": "HLA-DR DRB1*1501 (DR15) (Homo sapiens, UniProt P01903+P01911)", "conditions": "read-out: DRBI *1501"}, "HLA-DR DRB4*0101 (DR53)": {"target": "HLA-DR DRB4*0101 (DR53) (Homo sapiens, UniProt P01903+P13762, G164S)"}, "HLA-DR DRB1*0301 (DR3)": {"target": "HLA-DR DRB1*0301 (DR3) (Homo sapiens, UniProt P01903+P01911, A100K/A102G/A103R/A169T/F55Y/I96L/K41T/L162R/M171V/P40S/Q125H/Q178H/Q39Y/R42S/S66N/T106N/T262R/W38E/Y61H)", "sequence (P01903 26-254 limits assumed, other chains not shown)": "as above"}, "HLA-DR DRB1*0101 (DR1)": {"target": "HLA-DR DRB1*0101 (DR1) (Homo sapiens, UniProt P01903+P01911, A100R/D57E/F55L/F60I/F76Y/I96L/L162R/M171V/P40L/Q125E/R42F/V115G/Y59C)"}},
  "note": "Like-named read-outs stand apart in the source and are kept apart here. No end group written: not given here.",
  "data": [
    {"substance": "TEGRCLHYTVDKSKPK", "values": [
      {"measurement": "IC50", "setting": "HLA-DR DRB1*0401 (DR4); DRB1 *0401", "result": 0.2, "unit": "µM"},
      {"measurement": "IC50", "setting": "HLA-DR DRB1*0701 (DR7); DRB1 *0701", "result": "> 250", "unit": "µM"},
      {"measurement": "IC50", "setting": "HLA-DR DRB1*1101 (DR11); DRB1 *1101", "result": "> 1.25", "unit": "µM"}
    ]},
    {"substance": "TGYKVLVLNPSV", "values": [
      {"measurement": "IC50", "setting": "HLA-DR DRB5*0101 (DR51); read-out: DRB5 *0101", "result": "> 11.4", "unit": "µM"},
      {"measurement": "IC50", "setting": "HLA-DR DRB1*1302 (DR13); read-out: DRBI *1302", "result": 0.021, "unit": "µM"},
      {"measurement": "IC50", "setting": "HLA-DR DRB1*1101 (DR11); read-out: DRB1 *1101", "result": 0.026, "unit": "µM"}
    ]},
    {"substance": "TVVYREGNPFGICKL", "values": [
      {"measurement": "IC50", "setting": "HLA-DR DRB5*0101 (DR51); read-out: DRB5 *0101", "result": 48.8, "unit": "µM"},
      {"measurement": "IC50", "setting": "HLA-DR DRB1*1302 (DR13); read-out: DRBI *1302", "result": "> 13.1", "unit": "µM"},
      {"measurement": "IC50", "setting": "HLA-DR DRB1*1101 (DR11); read-out: DRB1 *1101", "result": "> 18", "unit": "µM"}
    ]},
    {"substance": "TYSVSFDSLFSAVKN", "values": [
      {"measurement": "IC50", "setting": "HLA-DR DRB5*0101 (DR51); read-out: DRB5 *0101", "result": 0.061, "unit": "µM"},
      {"measurement": "IC50", "setting": "HLA-DR DRB1*1501 (DR15)", "result": 3.22, "unit": "µM"},
      {"measurement": "IC50", "setting": "HLA-DR DRB1*1302 (DR13); read-out: DRBI *1302", "result": 5.89, "unit": "µM"},
      {"measurement": "IC50", "setting": "HLA-DR DRB1*1101 (DR11); read-out: DRB1 *1101", "result": 5.98, "unit": "µM"}
    ]},
    {"substance": "VASLLTTAEVVVTEI", "values": [
      {"measurement": "IC50", "setting": "HLA-DR DRB4*0101 (DR53); read-out: DRB4 *0101", "result": "> 26.4", "unit": "µM"},
      {"measurement": "IC50", "setting": "HLA-DR DRB5*0101 (DR51); read-out: DRB5 *0101", "result": "> 119", "unit": "µM"},
      {"measurement": "IC50", "setting": "HLA-DR DRB1*1501 (DR15)", "result": "> 50.8", "unit": "µM"},
      {"measurement": "IC50", "setting": "HLA-DR DRB1*1302 (DR13); read-out: DRBI *1302", "result": "> 10.3", "unit": "µM"},
      {"measurement": "IC50", "setting": "HLA-DR DRB1*1101 (DR11); read-out: DRB1 *1101", "result": "> 18.7", "unit": "µM"}
    ]},
    {"substance": "VGGVYLLPRRGPRLGV", "values": [
      {"measurement": "IC50", "setting": "HLA-DR DRB1*0301 (DR3); read-out: DRB1 *0301", "result": 237, "unit": "µM"}
    ]},
    {"substance": "VYDFVFADLRGVYRD", "values": [
      {"measurement": "IC50", "setting": "HLA-DR DRB5*0101 (DR51); read-out: DRB5 *0101", "result": "> 51", "unit": "µM"},
      {"measurement": "IC50", "setting": "HLA-DR DRB1*1501 (DR15)", "result": 0.855, "unit": "µM"},
      {"measurement": "IC50", "setting": "HLA-DR DRB1*1302 (DR13); read-out: DRBI *1302", "result": 0.079, "unit": "µM"}
    ]},
    {"substance": "VYQLDIQSTKEDLRV", "values": [
      {"measurement": "IC50", "setting": "HLA-DR DRB4*0101 (DR53); read-out: DRB4 *0101", "result": 0.226, "unit": "µM"},
      {"measurement": "IC50", "setting": "HLA-DR DRB5*0101 (DR51); read-out: DRB5 *0101", "result": 8.69, "unit": "µM"},
      {"measurement": "IC50", "setting": "HLA-DR DRB1*1302 (DR13); read-out: DRBI *1302", "result": 0.708, "unit": "µM"},
      {"measurement": "IC50", "setting": "HLA-DR DRB1*1101 (DR11); read-out: DRB1 *1101", "result": 7.35, "unit": "µM"}
    ]},
    {"substance": "YAGIRRDGLLLRLVD", "values": [
      {"measurement": "IC50", "setting": "HLA-DR DRB1*0301 (DR3)", "result": 0.0096, "unit": "µM"}
    ]},
    {"substance": "YAR(15)ASQTTLKAKT", "values": [
      {"measurement": "IC50", "setting": "HLA-DR DRB1*0101 (DR1); read-out: DRB1 *0101", "result": 0.0015, "unit": "µM"},
      {"measurement": "IC50", "setting": "HLA-DR DRB5*0101 (DR51); read-out: DRB5 *0101", "result": 0.0036, "unit": "µM"},
      {"measurement": "IC50", "setting": "HLA-DR DRB1*0401 (DR4); read-out: DRB1 *0401", "result": 0.00046, "unit": "µM"},
      {"measurement": "IC50", "setting": "HLA-DR DRB1*0701 (DR7); read-out: DRB1 *0701", "result": 1.2, "unit": "µM"},
      {"measurement": "IC50", "setting": "HLA-DR DRB1*1101 (DR11); read-out: DRB1 *1101", "result": 0.0039, "unit": "µM"}
    ]},
    {"substance": "YDFVFADLRIVYRDG", "values": [
      {"measurement": "IC50", "setting": "HLA-DR DRB1*1501 (DR15)", "result": 25.7, "unit": "µM"},
      {"measurement": "IC50", "setting": "HLA-DR DRB1*1302 (DR13); read-out: DRBI *1302", "result": 8.17, "unit": "µM"},
      {"measurement": "IC50", "setting": "HLA-DR DRB1*1101 (DR11); read-out: DRB1 *1101", "result": 6.54, "unit": "µM"}
    ]},
    {"substance": "YEEYVRFDSDVGE", "values": [
      {"measurement": "IC50", "setting": "HLA-DR DRB1*0101 (DR1); DRB1 *0101", "result": "≥ 50", "unit": "µM"},
      {"measurement": "IC50", "setting": "HLA-DR DRB5*0101 (DR51); DRB5 *0101", "result": "≥ 200", "unit": "µM"},
      {"measurement": "IC50", "setting": "HLA-DR DRB1*0401 (DR4); DRB1 *0401", "result": 0.4, "unit": "µM"},
      {"measurement": "IC50", "setting": "HLA-DR DRB1*1101 (DR11); DRB1 *1101", "result": "≥ 200", "unit": "µM"}
    ]},
    {"substance": "YIVMSDWTGGA", "values": [
      {"measurement": "IC50", "setting": "HLA-DR DRB1*0301 (DR3)", "result": 13.4, "unit": "µM"}
    ]},
    {"substance": "YKSAHKGFKGVDAQGTLSKI", "values": [
      {"measurement": "IC50", "setting": "HLA-DR DRB1*0101 (DR1); DRB1 *0101", "result": 0.07, "unit": "µM"},
      {"measurement": "IC50", "setting": "HLA-DR DRB5*0101 (DR51); DRB5 *0101", "result": 1.33, "unit": "µM"},
      {"measurement": "IC50", "setting": "HLA-DR DRB1*0301 (DR3)", "result": "> 900", "unit": "µM"},
      {"measurement": "IC50", "setting": "HLA-DR DRB1*0701 (DR7); DRB1 *0701", "result": 0.108, "unit": "µM"},
      {"measurement": "IC50", "setting": "HLA-DR DRB1*1101 (DR11); DRB1 *1101", "result": 2, "unit": "µM"}
    ]},
    {"substance": "YNFACTELKLVYRDD", "values": [
      {"measurement": "IC50", "setting": "HLA-DR DRB1*0101 (DR1); DRB1 *0101", "result": 7.52, "unit": "µM"},
      {"measurement": "IC50", "setting": "HLA-DR DRB4*0101 (DR53); DRB4 *0101", "result": 12.9, "unit": "µM"},
      {"measurement": "IC50", "setting": "HLA-DR DRB1*0401 (DR4); DRB1 *0401", "result": 1.98, "unit": "µM"},
      {"measurement": "IC50", "setting": "HLA-DR DRB1*0301 (DR3)", "result": 0.346, "unit": "µM"},
      {"measurement": "IC50", "setting": "HLA-DR DRB1*0701 (DR7); DRB1 *0701", "result": 2.87, "unit": "µM"},
      {"measurement": "IC50", "setting": "HLA-DR DRB1*1302 (DR13); DRBI *1302", "result": 10.2, "unit": "µM"}
    ]},
    {"substance": "YSYFPSIR", "values": [
      {"measurement": "IC50", "setting": "HLA-DR DRB1*0101 (DR1); DRB1 *0101", "result": "≥ 50", "unit": "µM"},
      {"measurement": "IC50", "setting": "HLA-DR DRB5*0101 (DR51); DRB5 *0101", "result": "> 200", "unit": "µM"},
      {"measurement": "IC50", "setting": "HLA-DR DRB1*0301 (DR3)", "result": "> 900", "unit": "µM"},
      {"measurement": "IC50", "setting": "HLA-DR DRB1*0701 (DR7); DRB1 *0701", "result": 7.22, "unit": "µM"},
      {"measurement": "IC50", "setting": "HLA-DR DRB1*1101 (DR11); DRB1 *1101", "result": 20, "unit": "µM"}
    ]}
  ]
}
